Test results from ChEMBL document CHEMBL1156974, “Design, synthesis and in vitro/in vivo evaluation of orally bioavailable prodrugs of a catechol-O-methyltransferase inhibitor” (Bioorg Med Chem Lett, 2010).
Converted amounts (≈) assume the structure as drawn.

Legend:
[1] = Distribution coefficient, log D at pH 7.4 by HPLC analysis; assay type: physicochemical; conditions: octanol/water
[2] = Distribution coefficient, log D at pH 1.2 by HPLC analysis; assay type: physicochemical; conditions: octanol/water
[3] = Chemical stability in fasted state simulated intestinal fluid up to 8 hrs by HPLC analysis; assay type: physicochemical; conditions: simulated gi fluid
[4] = Aqueous solubility in HCl buffer at pH 1.2 by HPLC analysis; assay type: physicochemical
[5] = Uncoupling activity in Wistar rat mitochondria assessed as increase in oxygen consumption by mitochondrial respiration assay relative to 10 uM dinitrophenol; assay type: ADME
[6] = Aqueous solubility in phosphate buffer at pH 7.4 by HPLC analysis; assay type: physicochemical
[7] = Distribution coefficient, log D at pH 4.0 by HPLC analysis; assay type: physicochemical; conditions: octanol/water
[8] = Aqueous solubility in acetate buffer at pH 4.0 by HPLC analysis; assay type: physicochemical
[9] = Chemical stability in […] up to 1 week by HPLC analysis; assay type: physicochemical; conditions: pH 4, 168 h
Serum = experiment: Metabolic stability in human serum up to 8 hrs by HPLC analysis; assay type: ADME, cell-free
[10] = target: T1, Catechol O-methyltransferase (Homo sapiens, UniProt P21964); experiment: Inhibition of human recombinant COMT by microplate screening assay
T1 sequence (P21964 whole entry): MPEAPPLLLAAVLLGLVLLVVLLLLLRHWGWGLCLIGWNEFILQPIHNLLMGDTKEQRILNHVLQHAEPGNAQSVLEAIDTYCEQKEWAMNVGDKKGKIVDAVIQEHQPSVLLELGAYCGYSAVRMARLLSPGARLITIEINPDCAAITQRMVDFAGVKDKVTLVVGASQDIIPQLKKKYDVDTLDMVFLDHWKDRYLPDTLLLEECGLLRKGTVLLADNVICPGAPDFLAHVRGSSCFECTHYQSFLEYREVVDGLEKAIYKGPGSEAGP

[11] = Chemical stability in phosphate buffer at pH 7.4 up to 1 week by HPLC analysis; assay type: physicochemical; conditions: pH 7.4, 168 h
[12] = Half life in rat liver homogenate by HPLC analysis; assay type: ADME, tissue-based
[13] = Chemical stability in acetate buffer assessed as hydrolysis half life at pH 4.0 by HPLC analysis; assay type: physicochemical
[14] = Chemical stability in phosphate buffer assessed as hydrolysis half life at pH 7.4 by HPLC analysis; assay type: physicochemical
[15] = Half life in human serum by HPLC analysis; assay type: ADME, cell-free
Rattus norvegicus = experiment: AUC in Wistar rat at 10 umol/kg, po up to 6 hrs by LC/MS/MS relative to 3-Chloro-5,6-dihydroxy-7-nitro-benzo[b]thiophene-2-carboxylic acid; assay type: ADME, organism-based, Plasma; conditions: in vivo
[16] = Chemical stability in fasted state simulated intestinal fluid assessed as hydrolysis half life by HPLC analysis; assay type: physicochemical
[17] = HCl buffer, read-out: solubility
[18] = acetate buffer, read-out: solubility
[19] = buffer, BLD = below limit of detection

In the case of `O=C(O)c1sc2c([N+](=O)[O-])c(O)c(O)cc2c1Cl`, the logD ([1]; read-out: logD) is reported as 0.06, the logD [2] is reported as 3.64 and the Stability [3] is reported as “Stable”. It also gave a solubility [4, 17] of 3.9 µg/mL (≈ 13.5 µM), an Uncoupling concentration [5] of over 50 µM and a solubility [6] of 15000 µg/mL (≈ 51800 µM). It also gave a logD [7] of 1.8 and a solubility [8, 18] of 53 µg/mL (≈ 183 µM).
With `COC(=O)c1sc2c([N+](=O)[O-])c(O)c(O)cc2c1Cl` the Stability [9] was “Stable”, the Stability (Serum) was “Stable” and the logD ([1]; read-out: logD) was 1.51. It also gave a Ki [10] of 2.2 nM, a solubility [4, 17] of 0.7 µg/mL (≈ 2.31 µM) and an Uncoupling concentration [5] of over 10 µM. The solubility [6] was 11.4 µg/mL (≈ 37.5 µM), the solubility [8, 18] was 4.2 µg/mL (≈ 13.8 µM) and the Stability [11] was “Stable”. The half-life [12] was 0.33 h.
For `CCCOC(=O)c1sc2c([N+](=O)[O-])c(O)c(O)cc2c1Cl`, the Stability (Serum) was “Stable”, the logD ([1]; read-out: logD) was 2.45 and the half-life [13] was 744 h. The Ki [10] was 9.2 nM, the solubility [4, 19] was “BLD” and the Uncoupling concentration [5] was over 5 µM. For the same compound, the solubility [6] was 10.8 µg/mL (≈ 32.6 µM), the solubility [8, 18] was 0.5 µg/mL (≈ 1.51 µM) and the Stability [11] was “Stable”. The half-life [12] was 0.34 h.
With `O=C(OCc1ccccc1)c1sc2c([N+](=O)[O-])c(O)c(O)cc2c1Cl` the Stability (Serum) was “Stable”, the half-life [14] was 21.6 h and the logD ([1]; BLD = below limit of detection) was “BLD”. The Ki [10] was 10.2 nM, the solubility [4, 19] was “BLD” and the Uncoupling concentration [5] was over 10 µM. For the same compound, the solubility [6] was 6.9 µg/mL (≈ 18.2 µM), the solubility [8, 19] was “BLD” and the half-life [12] was 0.865 h.
With `CC(C)C(=O)OCOC(=O)c1sc2c([N+](=O)[O-])c(O)c(O)cc2c1Cl` the half-life [15] was 5.1 h, the half-life [14] was 7.6 h and the logD ([1]; read-out: logD) was 2.91. The “fold change (FC)” value (Rattus norvegicus) was 2, the half-life [13] was 202 h and the Stability [3] was “Stable”. For the same compound, the Ki [10] was 17 nM, the solubility [4, 19] was “BLD” and the Uncoupling concentration [5] was over 50 µM. For the same compound, the solubility [6] was at least 200 µg/mL, the solubility [8, 19] was “BLD” and the half-life [12] was at most 0.0167 h.
With `CC(OC(=O)c1sc2c([N+](=O)[O-])c(O)c(O)cc2c1Cl)OC(=O)C(C)C` (stereo unspecified) the half-life [15] was 32.3 h, the half-life [14] was 48 h and the logD ([1]; read-out: logD) was 3.02. For the same compound, the “fold change (FC)” value (Rattus norvegicus) was 0.5, the Stability [3] was “Stable” and the Ki [10] was 17 nM. The solubility [4, 19] was “BLD”, the Uncoupling concentration [5] was over 50 µM and the solubility [6] was 258 µg/mL (≈ 639 µM). It also gave a solubility [8, 18] of 0.6 µg/mL (≈ 1.49 µM) and a half-life [12] of at most 0.0167 h.
For `CCCC(=O)OCOC(=O)c1sc2c([N+](=O)[O-])c(O)c(O)cc2c1Cl`, the half-life [15] was 5.3 h, the half-life [14] was 2.5 h and the Ki [10] was 10.6 nM. It also gave an Uncoupling concentration [5] of over 50 µM and a half-life [12] of at most 0.0167 h.
For `CCCCOC(=O)c1sc2c([N+](=O)[O-])c(O)c(O)cc2c1Cl`, the Stability (Serum) was “Stable”, the logD ([1]; BLD = below limit of detection) was “BLD” and the Ki [10] was 1.3 nM. The solubility [4, 19] was “BLD”, the Uncoupling concentration [5] was over 2.5 µM and the solubility [6] was 3.2 µg/mL (≈ 9.25 µM). The solubility [8, 18] was 0.7 µg/mL (≈ 2.02 µM), the Stability [11] was “Stable” and the half-life [12] was 0.698 h.
In the case of `CC(C)OC(=O)c1sc2c([N+](=O)[O-])c(O)c(O)cc2c1Cl`, the Stability (Serum) is reported as “Stable”, the logD ([1]; read-out: logD) is reported as 1.14 and the half-life [13] is reported as 552 h. For the same compound, the Ki [10] was 1.1 nM, the solubility [4, 19] was “BLD” and the Uncoupling concentration [5] was over 1 µM. The solubility [6] was 18.7 µg/mL (≈ 56.4 µM), the solubility [8, 18] was 0.5 µg/mL (≈ 1.51 µM) and the Stability [11] was “Stable”. It also gave a half-life [12] of 2.18 h.
With `CCCC(=O)OC(C)OC(=O)c1sc2c([N+](=O)[O-])c(O)c(O)cc2c1Cl` (stereo unspecified) the half-life [15] was 25 h, the half-life [14] was 4.5 h and the logD ([1]; read-out: logD) was 2.16. It also gave a Ki [10] of 16.6 nM, a solubility [4, 17] of 0.5 µg/mL (≈ 1.24 µM) and an Uncoupling concentration [5] of over 50 µM. The solubility [6] was 60.4 µg/mL (≈ 150 µM), the solubility [8, 18] was 4.6 µg/mL (≈ 11.4 µM) and the half-life [12] was at most 0.0167 h.
In the case of `CC(C)C(N)C(=O)OCOC(=O)c1sc2c([N+](=O)[O-])c(O)c(O)cc2c1Cl` (stereo unspecified), the half-life [15] is reported as 0.06 h, the half-life [16] is reported as 31.7 h and the half-life [14] is reported as 2 h. The “fold change (FC)” value (Rattus norvegicus) was 0.4, the half-life [13] was 40.8 h and the Ki [10] was 6 nM. It also gave a solubility [4, 17] of 6600 µg/mL (≈ 15800 µM), an Uncoupling concentration [5] of 25 µM and a solubility [6] of 10 µg/mL (≈ 23.9 µM). For the same compound, the solubility [8, 18] was 17.5 µg/mL (≈ 41.8 µM) and the half-life [12] was at most 0.0167 h.
Compound `O=C(OCc1coc(=O)o1)c1sc2c([N+](=O)[O-])c(O)c(O)cc2c1Cl` has a half-life [15] of 0.03 h, a half-life [16] of 167 h and a half-life [14] of 11.7 h. For the same compound, the “fold change (FC)” value (Rattus norvegicus) was 2.1, the half-life [13] was 93.6 h and the Ki [10] was 1.6 nM. It also gave a half-life [12] of at most 0.0167 h.
